Where only a bound is given, the exact number is not on record here.

In the test the target is human activated kallikrein enzyme (Homo sapiens (Human), UniProt P03952). Description: Plasma kallikrein inhibition assay with fluorogenic peptide substrate, 500 pM activated kallikrein format. The format is biochemical. The conditions noted are these: 500 pM activated kallikrein; 300 uM Pro-Phe-Arg-7-amido-4-methylcoumarin substrate; 30 min preincubation, 10 min reaction at RT; read-out: Primary Dose Response Assay: Average EC50. How it is done: Example compounds were evaluated for inhibition of the human activated kallikrein enzyme in two formats of an assay employing a fluorogenic peptide substrate. In one assay format, the concentrations of reagents were as follows: 20 mM Tris pH 7.5, 1 mM EDTA, 150 mM sodium chloride, 0.1% PEG-400, 0.1% Triton X-100, […], 300 uM Pro-Phe-Arg-7-amido-4-methylcoumarin substrate. Prior to reaction initiation with substrate, enzyme and inhibitors were preincubated for 30 min at RT. After initiation with substrate, reactions were incubated for 10 min at RT and fluorescence emission at 460 nm from 380 nm excitation measured with a microplate reader. In another assay format, the concentrations of reagents were as follows: 20 mM Tris pH 7.5, 1 mM EDTA, 150 mM sodium chloride, 0.1% PEG-400, 0.1% Triton X-100, 5 pM activated kallikrein enzyme, 300 uM Pro-Phe-Arg-7-amido-4-methylcoumarin substrate. Prior to reaction initiation with substrate, enzyme and inhibitors were preincubated for 30 min at RT. After initiation with substrate, reactions were incubated for 18 h at RT and fluorescence emission at 460 nm from 380 nm excitation measured with a microplate reader.
Chain of human activated kallikrein enzyme (P03952 391-638): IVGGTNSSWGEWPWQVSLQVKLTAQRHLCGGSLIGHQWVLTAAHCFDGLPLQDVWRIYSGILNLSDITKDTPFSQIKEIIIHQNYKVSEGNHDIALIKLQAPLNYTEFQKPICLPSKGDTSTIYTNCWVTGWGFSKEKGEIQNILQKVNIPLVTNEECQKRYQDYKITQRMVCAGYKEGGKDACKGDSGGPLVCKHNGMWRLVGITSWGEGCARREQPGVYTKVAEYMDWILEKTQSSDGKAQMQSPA
Chain of human activated kallikrein enzyme (P03952 20-390 partner): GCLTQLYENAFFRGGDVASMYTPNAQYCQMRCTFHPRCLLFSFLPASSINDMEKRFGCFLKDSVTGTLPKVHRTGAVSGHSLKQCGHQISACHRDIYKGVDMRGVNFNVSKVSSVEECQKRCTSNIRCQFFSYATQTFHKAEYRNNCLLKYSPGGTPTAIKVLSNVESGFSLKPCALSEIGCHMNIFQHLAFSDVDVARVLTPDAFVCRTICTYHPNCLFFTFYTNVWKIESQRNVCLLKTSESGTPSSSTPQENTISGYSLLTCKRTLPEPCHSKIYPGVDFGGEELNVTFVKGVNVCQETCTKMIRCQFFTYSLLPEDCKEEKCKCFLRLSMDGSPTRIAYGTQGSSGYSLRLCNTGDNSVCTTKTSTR
Table II provides the results of the assay in the format with 500 pM activated kallikrein assay.
Table III provides comparative plasma kallikrein inhibition potency in the assay format with 500 pM activated kallikrein assay (described in detail in the preceding example).
In the case of `O=C(NCc1cc(=O)[nH]c2ccccc12)c1cnn(Cc2cn3cc(C4CC4)ccc3n2)c1` [Example I-120, 1-((6-cyclopropylimidazo[1,2-a]pyridin-2-yl)methyl)-N-((2-oxo-1,2-dihydroquinolin-4-yl)methyl)-1H-pyrazole-4-carboxamide], the EC50 – broadly, the concentration needed to bring the measured effect to its halfway point – is 10 to 100 nM.

Take `COc1ccnc(CNC(=O)c2cn(Cc3cn4cc(C5CC5)cc(CCN(C)C)c4n3)nn2)c1F` [Example I-138, 1-((6-cyclopropyl-8-(2-(dimethylamino)ethyl)imidazo[1,2-a]pyridin-2-yl)methyl)-N-((3-fluoro-4-methoxypyridin-2-yl)methyl)-1H-1,2,3-triazole-4-carboxamide]: the EC50 is 1 to 10 nM.

As to `O=C(NCc1cccc2ccc(Br)cc12)c1cnn(Cc2cn3cc(C4CC4)ccc3n2)c1` [Example I-133, N-((7-bromonaphthalen-1-yl)methyl)-1-((6-cyclopropylimidazo[1,2-a]pyridin-2-yl)methyl)-1H-pyrazole-4-carboxamide], the EC50 was 2000 to 7100 nM. As to `COc1ccc(-c2cnc(C(=O)O)nc2)c(CNC(=O)c2cn(Cc3cn4cc(C5CC5)ccc4n3)nn2)c1F` [Example I-74, 5-(2-((1-((6-cyclopropylimidazo[1,2-a]pyridin-2-yl)methyl)-1H-1,2,3-triazole-4-carboxamido)methyl)-3-fluoro-4-methoxyphenyl)pyrimidine-2-carboxylic Acid], the half-maximal effective concentration (EC50) was in the range of 1 to 10 nM. For the compound `Cc1cc(C#N)cc(C)c1CNS(=O)(=O)c1cnn(Cc2cn3cc(C4CC4)ccc3n2)c1` [Example I-43, N-(4-cyano-2,6-dimethylbenzyl)-1-((6-cyclopropylimidazo[1,2-a]pyridin-2-yl)methyl)-1H-pyrazole-4-sulfonamide], the EC50 was above 7100 nM.

As for `Cc1cc(N)nc(C)c1CNS(=O)(=O)c1cnn(Cc2cn3cc(C4CC4)ccc3n2)c1` [Example I-46, N-((6-amino-2,4-dimethylpyridin-3-yl)methyl)-1-((6-cyclopropylimidazo[1,2-a]pyridin-2-yl)methyl)-1H-pyrazole-4-sulfonamide], the EC50 was 100 to 2000 nM.

As for `COc1ccc(C#N)c(CNC(=O)c2cnn(Cc3cn4cc(C5CC5)cc(C#N)c4n3)c2)c1F` [Example I-118, N-(6-cyano-2-fluoro-3-methoxybenzyl)-1-((8-cyano-6-cyclopropylimidazo[1,2-a]pyridin-2-yl)methyl)-1H-pyrazole-4-carboxamide], the EC50 is at most 1 nM.

Consider `O=S(=O)(NCCc1ccc(Cl)cc1)c1cnn(Cc2cn3cc(C4CC4)ccc3n2)c1` [Example I-35, N-(4-chlorophenethyl)-1-((6-cyclopropylimidazo[1,2-a]pyridin-2-yl)methyl)-1H-pyrazole-4-sulfonamide], for which the EC50 was above 7100 nM.

As to `CCOC(=O)CCc1cc(C2CC2)cn2cc(Cn3cc(C(=O)NCc4c(C#N)ccc(OC)c4F)nn3)nc12` [Example I-108, ethyl 3-(2-((4-((6-cyano-2-fluoro-3-methoxybenzyl)carbamoyl)-1H-1,2,3-triazol-1-yl)methyl)-6-cyclopropylimidazo[1,2-a]pyridin-8-yl)propanoate], the EC50 lay within 1 to 10 nM.

`CS(=O)(=O)c1ccccc1CNC(=O)c1cn(Cc2cn3cc(C4CC4)ccc3n2)nn1` [Example I-51, 1-((6-cyclopropylimidazo[1,2-a]pyridin-2-yl)methyl)-N-(2-(methylsulfonyl)benzyl)-1H-1,2,3-triazole-4-carboxamide]: the EC50 was in the range of 100 to 2000 nM. Then `COc1ccc(-c2nnco2)c(CNC(=O)c2cn(Cc3cn4cc(C5CC5)ccc4n3)nn2)c1F` [Example I-97, 1-((6-cyclopropylimidazo[1,2-a]pyridin-2-yl)methyl)-N-(2-fluoro-3-methoxy-6-(1,3,4-oxadiazol-2-yl)benzyl)-1H-1,2,3-triazole-4-carboxamide], with 10 to 100 nM. With `O=C(NCc1c(C(F)F)ccc(Cl)c1F)c1cn(Cc2cn3cc(C4CC4)ccc3n2)nn1` [Example I-79, N-(3-chloro-6-(difluoromethyl)-2-fluorobenzyl)-1-((6-cyclopropylimidazo[1,2-a]pyridin-2-yl)methyl)-1H-1,2,3-triazole-4-carboxamide], the EC50 fell in the range of 10 to 100 nM. For `NCc1cc2c(cn1)N(C(=O)c1cn(Cc3cn4cc(C5CC5)ccc4n3)nn1)CC2` [Example I-147, (5-(aminomethyl)-2,3-dihydro-1H-pyrrolo[2,3-c]pyridin-1-yl)(1-((6-cyclopropylimidazo[1,2-a]pyridin-2-yl)methyl)-1H-1,2,3-triazol-4-yl)methanone], the EC50 is 100 to 2000 nM.

Turning to `COc1ccc(-n2cnnn2)c(CNC(=O)c2nc3n(n2)CCC3c2cn3cc(C4CC4)ccc3n2)c1F` (stereo not drawn) [Example I-4, 7-(6-cyclopropylimidazo[1,2-a]pyridin-2-yl)-N-(2-fluoro-3-methoxy-6-(1H-tetrazol-1-yl)benzyl)-6,7-dihydro-5H-pyrrolo[1,2-b][1,2,4]triazole-2-carboxamide], the EC50 is 1 to 10 nM.

On to `O=C(NCc1cccc2ccc(Cl)cc12)c1cnn(Cc2cn3cc(C4CC4)ccc3n2)c1` [Example I-130, N-((7-chloronaphthalen-1-yl)methyl)-1-((6-cyclopropylimidazo[1,2-a]pyridin-2-yl)methyl)-1H-pyrazole-4-carboxamide], for which the EC50 fell in the range of 2000 to 7100 nM. Turning to `O=C(NCc1c(-n2cnnn2)ccc(Cl)c1F)c1cnn(Cc2cn3cc(C4CC4)ccc3n2)c1` [Example I-116, N-(3-chloro-2-fluoro-6-(1H-tetrazol-1-yl)benzyl)-1-((6-cyclopropylimidazo[1,2-a]pyridin-2-yl)methyl)-1H-pyrazole-4-carboxamide], the EC50 is at most 1 nM.

Take `O=C(NCc1cc(=O)[nH]c2ccc(Br)cc12)c1cnn(Cc2cn3cc(C4CC4)ccc3n2)c1` [Example I-122, N-((6-bromo-2-oxo-1,2-dihydroquinolin-4-yl)methyl)-1-((6-cyclopropylimidazo[1,2-a]pyridin-2-yl)methyl)-1H-pyrazole-4-carboxamide]: the EC50 lay within 1 to 10 nM. On to `COc1ccc(-n2cnnn2)c(CNC(=O)c2cn(Cc3cn4cc(C5CC5)cc(C5(F)COC5)c4n3)nn2)c1F` [Example I-91, 1-((6-cyclopropyl-8-(3-fluorooxetan-3-yl)imidazo[1,2-a]pyridin-2-yl)methyl)-N-(2-fluoro-3-methoxy-6-(1H-tetrazol-1-yl)benzyl)-1H-1,2,3-triazole-4-carboxamide], for which the EC50 was at most 1 nM. For `Cc1cc2[nH]ccc2c(C)c1CNC(=O)c1cnn(Cc2cn3cc(C4CC4)ccc3n2)c1` [Example I-124, 1-((6-cyclopropylimidazo[1,2-a]pyridin-2-yl)methyl)-N-((4,6-dimethyl-1H-indol-5-yl)methyl)-1H-pyrazole-4-carboxamide], the EC50 was in the range of 10 to 100 nM.

Turning to `COc1cccc(CNC(=O)c2cn(Cc3cn4cc(C5CC5)ccc4n3)nn2)c1F` [Example I-100, 1-((6-cyclopropylimidazo[1,2-a]pyridin-2-yl)methyl)-N-(2-fluoro-3-methoxybenzyl)-1H-1,2,3-triazole-4-carboxamide], the EC50 was in the range of 100 to 2000 nM. Then `COc1ccc(-n2cnnn2)c(CNS(=O)(=O)c2cnn(Cc3cn4cc(C5CC5)ccc4n3)c2)c1F` [Example I-45, 1-((6-cyclopropylimidazo[1,2-a]pyridin-2-yl)methyl)-N-(2-fluoro-3-methoxy-6-(1H-tetrazol-1-yl)benzyl)-1H-pyrazole-4-sulfonamide], with 1 to 10 nM.

The values are drawn from patent US11787796B2, “Plasma Kallikrein inhibitors and uses thereof” (Takeda Pharmaceutical Company Limited, priority 2019, dated 2023).
